Results: patent US20220315554A1, “COMPOUNDS COMPRISING A […] LIGAND AND USE THEREOF” (priority 2019, published 2022)
Numbered stars: 1 amine (or outer) side, 2 acyl side, 3 side chain; on linkers, the order of the positions; unused ones are H or OH. Bridge positions count the residues as written; N and C are the ends. Square brackets hold non-standard residues; d marks the D form. Peptide text beside a SMILES is read from it. * marks the point of attachment. ξ: configuration not given here. TBMB(SCH2CH2NH-DOTA) = O=C(O)CN1CCN(CC(=O)O)CCN(CC(=O)NCCSCc2cc(C[*:1])cc(C[*:2])c2)CCN(CC(=O)O)CC1; X3 = NC(=O)[C@H](CCCCNC(=O)CN1CCN(CC(=O)O)CCN(CC(=O)O)CCN(CC(=O)O)CC1)NC(=O)CCC(=O)NCCCOCCOCCOCCCN*; X2 = O=C(O)CN1CCN(CC(=O)O)CCN(CC(=O)NCCCOCCOCCOCCCN*)CCN(CC(=O)O)CC1; mXylylene = c1cc(C[*:1])cc(C[*:2])c1; NMeF = CN[C@@H](Cc1ccccc1)C(=O)O; Suc = O=C(CCC(=O)[*:2])[*:1]; 4Amb = NCc1ccc(C(=O)O)cc1; Nle = CCCC[C@H](N)C(=O)O; Hexanoyl = CCCCCC(=O)*; ξD = NC(CC(=O)O)C(=O)O

Legend:
Human recombinant FAP [1] = target: T1, Human recombinant FAP (Homo sapiens, UniProt Q12884); assay: Surface plasmon resonance (Biacore) assay; format: binding
T1 sequence (Q12884 1-760): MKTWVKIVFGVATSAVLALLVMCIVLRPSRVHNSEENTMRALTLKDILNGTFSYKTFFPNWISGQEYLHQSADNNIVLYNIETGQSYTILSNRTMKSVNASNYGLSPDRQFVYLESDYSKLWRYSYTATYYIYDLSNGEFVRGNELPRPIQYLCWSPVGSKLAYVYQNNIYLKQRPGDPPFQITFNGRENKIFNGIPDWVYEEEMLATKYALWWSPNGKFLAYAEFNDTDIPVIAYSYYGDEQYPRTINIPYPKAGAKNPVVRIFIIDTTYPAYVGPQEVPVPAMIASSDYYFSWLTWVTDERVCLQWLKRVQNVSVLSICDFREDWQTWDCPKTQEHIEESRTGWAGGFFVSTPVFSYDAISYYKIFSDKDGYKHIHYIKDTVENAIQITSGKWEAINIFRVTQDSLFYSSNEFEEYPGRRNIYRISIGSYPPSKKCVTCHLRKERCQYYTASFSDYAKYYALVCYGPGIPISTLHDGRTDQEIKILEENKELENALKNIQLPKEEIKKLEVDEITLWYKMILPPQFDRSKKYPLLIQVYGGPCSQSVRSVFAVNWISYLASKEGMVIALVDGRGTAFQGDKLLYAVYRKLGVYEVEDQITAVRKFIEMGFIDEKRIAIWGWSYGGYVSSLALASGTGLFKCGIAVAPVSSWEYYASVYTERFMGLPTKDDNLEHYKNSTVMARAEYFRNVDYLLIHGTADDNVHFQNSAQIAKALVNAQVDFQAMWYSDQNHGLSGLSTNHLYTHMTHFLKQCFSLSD

Recombinant human DPP4 = target: T2, Recombinant human DPP4 (Homo sapiens, UniProt P27487); assay: DPP4 protease activity assay; format: biochemical
T2 construct: purchased R&D systems 9168-SE
T2 sequence (P27487 whole entry): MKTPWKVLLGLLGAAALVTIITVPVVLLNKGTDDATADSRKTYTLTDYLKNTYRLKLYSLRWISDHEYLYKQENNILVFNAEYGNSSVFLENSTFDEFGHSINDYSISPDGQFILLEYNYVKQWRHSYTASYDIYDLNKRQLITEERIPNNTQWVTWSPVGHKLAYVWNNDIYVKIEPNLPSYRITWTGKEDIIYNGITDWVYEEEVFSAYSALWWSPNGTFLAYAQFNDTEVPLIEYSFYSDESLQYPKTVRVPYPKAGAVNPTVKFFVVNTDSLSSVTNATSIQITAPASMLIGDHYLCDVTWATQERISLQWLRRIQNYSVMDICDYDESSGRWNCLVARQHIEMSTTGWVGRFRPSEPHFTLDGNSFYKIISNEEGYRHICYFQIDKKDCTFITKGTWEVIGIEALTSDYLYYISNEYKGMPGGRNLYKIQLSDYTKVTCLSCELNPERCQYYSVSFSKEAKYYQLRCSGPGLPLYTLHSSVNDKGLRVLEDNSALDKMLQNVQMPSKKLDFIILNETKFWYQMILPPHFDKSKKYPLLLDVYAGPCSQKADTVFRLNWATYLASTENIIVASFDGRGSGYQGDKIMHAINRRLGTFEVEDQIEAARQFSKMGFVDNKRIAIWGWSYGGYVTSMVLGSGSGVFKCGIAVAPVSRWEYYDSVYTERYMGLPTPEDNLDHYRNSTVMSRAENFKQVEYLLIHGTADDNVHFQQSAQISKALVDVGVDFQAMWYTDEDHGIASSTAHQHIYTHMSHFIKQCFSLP

[2] = Plasma stability assay, mouse plasma; format: in vitro ADME; details: 37° C., read-out: % intact compound remaining after incubation, Mouse plasma; for remaining at 4 h, 9.8 µM: 4 h incubation; for remaining at 24 h, 9.8 µM: 24 h incubation
[3] = target: T3, FAP-expressing human WI-38 fibroblasts (Homo sapiens, UniProt Q12884); assay: Competitive FACS binding assay
T3 construct: FAP-expressing human WI-38 fibroblasts (ECACC) were cultured in EMEM; host or cells: WI-38 human fibroblasts
T3 sequence (Q12884 1-760): T1 sequence (Q12884 1-760)
Experimental: Cells were analyzed in an Attune NxT flow cytometer. […]

Human recombinant FAP [4] = target: T1, Human recombinant FAP; assay: FRET-based FAP protease activity assay; format: biochemical; parameters: purchased R&D systems 3715-SE
recombinant human PREP = target: T4, recombinant human PREP (Homo sapiens, UniProt P48147); assay: PREP protease activity assay; format: biochemical
T4 construct: purchased R&D systems 4308-SE
T4 sequence (P48147 1-710): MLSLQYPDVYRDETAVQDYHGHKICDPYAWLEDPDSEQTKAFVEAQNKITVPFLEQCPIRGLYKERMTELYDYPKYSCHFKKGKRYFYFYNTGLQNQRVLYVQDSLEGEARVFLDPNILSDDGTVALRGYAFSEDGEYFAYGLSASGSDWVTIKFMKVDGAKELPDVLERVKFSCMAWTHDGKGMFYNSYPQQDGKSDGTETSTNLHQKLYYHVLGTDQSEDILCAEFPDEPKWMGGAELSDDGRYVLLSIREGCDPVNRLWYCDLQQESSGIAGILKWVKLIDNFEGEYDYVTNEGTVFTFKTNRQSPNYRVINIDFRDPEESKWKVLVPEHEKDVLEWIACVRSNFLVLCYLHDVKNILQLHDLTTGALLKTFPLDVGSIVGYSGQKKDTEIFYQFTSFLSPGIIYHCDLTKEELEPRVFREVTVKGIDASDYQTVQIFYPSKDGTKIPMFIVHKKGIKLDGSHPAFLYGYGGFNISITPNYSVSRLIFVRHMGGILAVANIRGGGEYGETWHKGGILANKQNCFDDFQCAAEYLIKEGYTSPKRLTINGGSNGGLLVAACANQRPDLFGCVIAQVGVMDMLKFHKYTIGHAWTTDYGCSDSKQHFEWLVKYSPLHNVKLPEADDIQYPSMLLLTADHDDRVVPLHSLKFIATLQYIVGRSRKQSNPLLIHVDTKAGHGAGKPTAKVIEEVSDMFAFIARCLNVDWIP

[5] = Plasma stability assay, human plasma; format: in vitro ADME; details: 24 h incubation, 37° C., read-out: % intact compound remaining after incubation, Human plasma
[6] = pIC50 Category (FACS), competition with 3 nM Cy5-labeled compound, WI-38 fibroblasts, 4° C., 1 hour
[7] = pIC50 Category (Activity), recombinant human FAP, FRET substrate, 37° C.

Compound | Kd (Human recombinant FAP [1]) [nM] | IC50 (Recombinant human DPP4) [nM] | remaining at 4 h, 9.8 µM [2] [%] | IC50 [3, 6] [nM] | IC50 (Human recombinant FAP [4]; [7]) [nM] | IC50 (recombinant human PREP) [nM] | IC50 ([3]; pIC50 (highest activity category), FACS binding) [nM] | IC50 (Human recombinant FAP [4]; pIC50 (highest activity category), FAP activity assay) [nM] | remaining at 24 h, 9.8 µM [5] [%] | remaining at 24 h, 9.8 µM [2] [%]
CCCCCC(=O)N[C@H]1CSCc2cccc(c2)CSC[C@@H](C(=O)N[C@@H](CC(=O)O)C(=O)N[C@@H](Cc2c[nH]cn2)C(=O)N[C@@H](Cc2ccccc2)C(=O)N[C@@H](CCCNC(=N)N)C(=O)N[C@@H](CC(=O)O)C(=O)NCCCOCCOCCOCCCNC(=O)CCC(=O)N[C@@H](CCCCNC(=O)CN2CCN(CC(=O)O)CCN(CC(=O)O)CCN(CC(=O)O)CC2)C(N)=O)NC(=O)[C@H](Cc2ccccc2)NC(=O)[C@H](CCC(=O)O)NC(=O)[C@H]([C@@H](C)O)NC(=O)[C@@H]2CCCN2C(=O)[C@@H]2CCCN2C1=O [3BP-3105, Hex-[Cys(3MeBn)-Pro-Pro-Thr-Glu-Phe-Cys]-Asp-His-Phe-Arg-Asp-Ttds-Lys(DOTA)-NH2] (Hexanoyl-CPPTEFCDHFRD-X3; linker 1-7 via mXylylene) | < 10 | > 1000 | 55 | < 10 | < 10 | > 1000 |  |  |  | 
CSCC[C@H](NC(=O)CCC(=O)NCCCOCCOCCOCCOCCCNC(=O)CN1CCN(CC(=O)O)CCN(CC(=O)O)CCN(CC(=O)O)CC1)C(=O)N[C@H]1CSCc2cccc(c2)CSC[C@@H](C(=O)N[C@@H](CC(=O)O)C(=O)N[C@@H](Cc2c[nH]cn2)C(=O)N[C@@H](Cc2ccccc2)C(=O)N[C@@H](CCCNC(=N)N)C(=O)N[C@@H](CC(=O)O)C(N)=O)NC(=O)[C@H](Cc2ccccc2)NC(=O)[C@H](CCC(=O)O)NC(=O)[C@H]2NC(=O)[C@@H]3C(CCN3C(=O)[C@@H]3CCCN3C1=O)[C@H]2O [3BP-3168, DOTA-Ttds-Nle-[Cys(3MeBn)-Pro-Pro-Thr-Glu-Phe-Cys]-Asp-His-Phe-Arg-Asp-NH2] | < 10 | > 1000 | 100 | < 10 | < 10 | > 1000 | < 10 | < 10 |  | 
CCCCCC(=O)N[C@H]1CSCc2cccc(c2)CSC[C@@H](C(=O)N[C@@H](CC(=O)O)C(=O)N[C@@H](Cc2c[nH]cn2)C(=O)N(C)[C@@H](Cc2ccccc2)C(=O)N[C@@H](CCCNC(=N)N)C(=O)NCCCOCCOCCOCCCNC(=O)CCC(=O)N[C@@H](CCCCNC(=O)CN2CCN(CC(=O)O)CCN(CC(=O)O)CCN(CC(=O)O)CC2)C(N)=O)NC(=O)[C@H](Cc2ccccc2)NC(=O)[C@H](CCC(=O)O)NC(=O)[C@H]([C@@H](C)O)NC(=O)[C@@H]2CCCN2C(=O)[C@@H]2CCCN2C1=O [3BP-3275, Hex-[Cys(3MeBn)-Pro-Pro-Thr-Glu-Phe-Cys]-Asp-His-Nmf-Arg-Ttds-Lys(DOTA)-NH2] (Hexanoyl-CPPTEFCDH[NMeF]R-X3; linker 1-7 via mXylylene) | < 10 | > 1000 | 94 | < 10 | < 10 | > 1000 |  |  |  | 
CCCC[C@H](NC(=O)CCC(=O)NCCCOCCOCCOCCCNC(=O)CN1CCN(CC(=O)O)CCN(CC(=O)O)CCN(CC(=O)O)CC1)C(=O)N[C@H]1CSCc2cccc(c2)CSC[C@@H](C(N)=O)NC(=O)[C@H](Cc2ccccc2)NC(=O)[C@H](CCC(=O)O)NC(=O)[C@H]([C@@H](C)O)NC(=O)[C@@H]2CCCN2C(=O)[C@@H]2CCCN2C1=O [3BP-3319, DOTA-Ttds-Nle-[Cys(3MeBn)-Pro-Pro-Thr-Glu-Phe-Cys]-NH2] ({X2-Suc}-[Nle]CPPTEFC-NH2; linker 2-8 via mXylylene) | 10 to 79.4 | > 1000 | 100 | 10 to 79.4 | 10 to 79.4 | 631 |  |  |  | 
CCCC[C@H](NC(=O)CCC(=O)NCCCOCCOCCOCCCNC(=O)CN1CCN(CC(=O)O)CCN(CC(=O)O)CCN(CC(=O)O)CC1)C(=O)N[C@H]1CSCc2cccc(c2)CSC[C@@H](C(=O)NC(CC(=O)O)C(N)=O)NC(=O)[C@H](Cc2ccccc2)NC(=O)[C@H](CCC(=O)O)NC(=O)[C@H]([C@@H](C)O)NC(=O)[C@@H]2CCCN2C(=O)[C@@H]2CCCN2C1=O (stereo partly drawn) [3BP-3320, DOTA-Ttds-Nle-[Cys(3MeBn)-Pro-Pro-Thr-Glu-Phe-Cys]-Asp-NH2] ({X2-Suc}-[Nle]CPPTEFC[ξD]-NH2; linker 2-8 via mXylylene) | < 10 | > 1000 | 75 | 10 to 79.4 | < 10 | > 1000 |  |  |  | 
CCCC[C@H](NC(=O)CCC(=O)NCCCOCCOCCOCCCNC(=O)CN1CCN(CC(=O)O)CCN(CC(=O)O)CCN(CC(=O)O)CC1)C(=O)N[C@H]1CSCc2cccc(c2)CSC[C@@H](C(=O)N[C@@H](CC(=O)O)C(=O)NCc2ccc(C(=O)N[C@@H](CCCNC(=N)N)C(N)=O)cc2)NC(=O)[C@H](Cc2ccccc2)NC(=O)[C@H](CCC(=O)O)NC(=O)[C@H]([C@@H](C)O)NC(=O)[C@@H]2CCCN2C(=O)[C@@H]2CCCN2C1=O [3BP-3321, DOTA-Ttds-Nle-[Cys(3MeBn)-Pro-Pro-Thr-Glu-Phe-Cys]-Asp-Pamb-Arg-NH2] ({X2-Suc}-[Nle]CPPTEFCD[4Amb]R-NH2; linker 2-8 via mXylylene) | < 10 | > 1000 | 94 | < 10 | < 10 | > 1000 |  |  |  | 
CCCCCC(=O)N[C@H]1CSCc2cccc(c2)CSC[C@@H](C(=O)N[C@@H](CCCCNC(=O)CN2CCN(CC(=O)O)CCN(CC(=O)O)CCN(CC(=O)O)CC2)CC(=O)O)NC(=O)[C@H](Cc2ccccc2)NC(=O)[C@H](CCC(N)=O)NC(=O)[C@H]([C@@H](C)O)NC(=O)[C@@H]2CCCN2C(=O)[C@@H]2CCCN2C1=O [3BP-3397, Hex-[Cys(3MeBn)-Pro-Pro-Thr-Gln-Phe-Cys]-Bhk(DOTA)-OH] | < 10 | > 1000 |  | < 10 | < 10 | > 1000 |  |  | 100 | 92
CCCCCC(=O)N[C@H]1CSCc2cc(CSCCNC(=O)CN3CCN(CC(=O)O)CCN(CC(=O)O)CCN(CC(=O)O)CC3)cc(c2)CSC[C@@H](C(=O)N[C@@H](CC(=O)O)C(N)=O)NC(=O)[C@H](Cc2ccccc2)NC(=O)[C@H](CCC(N)=O)NC(=O)[C@H]([C@@H](C)O)NC(=O)[C@@H]2CCCN2C(=O)[C@@H]2CCCN2C1=O [3BP-3426, Hex-[Cys(tMeBn(DOTA-AET))-Pro-Pro-Thr-Gln-Phe-Cys]-Asp-NH2] (Hexanoyl-CPPTQFCD-NH2; linker 1-7 via TBMB(SCH2CH2NH-DOTA)) | < 10 | > 1000 |  | < 10 | < 10 | > 1000 |  |  |  | 73
CCCCCC(=O)N[C@H]1CSCc2cccc(c2)CSC[C@@H](C(=O)N[C@@H](CC(=O)O)C(N)=O)NC(=O)[C@H](Cc2ccccc2)NC(=O)[C@H](CCC(N)=O)NC(=O)[C@H]([C@@H](C)O)NC(=O)[C@@H]2CCCN2C(=O)[C@@H]2CCCN2C1=O [3BP-3476, Hex-[Cys(3MeBn)-Pro-Pro-Thr-Gln-Phe-Cys]-Asp-NH2] (Hexanoyl-CPPTQFCD-NH2; linker 1-7 via mXylylene) | < 10 | > 1000 |  | < 10 | < 10 | > 1000 |  |  |  | 
